In the supplement of paper PMC8024199:
± gives the standard deviation of the averaged measurements.

Legend:
Assay in all cases: drug sensitivity score (DSS) (DSS score); higher = more sensitive (stronger growth inhibition); extreme values may be limits of the assay
[1] = tested on: Ba/F3 P210-BCR-ABL1 RUNX1-/mut (mouse)
How it was run: (§1)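 Mouse Ba/F3 cells, either CRISPR/Cas9-edited at a target exon or edited-control clones, were screened against a 528-compound library on pre-printed 384-well plates. Each compound was tested at five concentrations across a 10,000-fold range, with 10,000 cells per well in RPMI with 10% FBS for 72 h at 37 °C and 5% CO2. CellTiter-Glo luminescence was scaled between vehicle and positive-control wells, and each dose-response was summarised as a drug sensitivity score. Scores were averaged over two replicates.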

[2] = tested on: Ba/F3 P210-BCR-ABL1 RUNX1wt/wt control (mouse)
How it was run: as §1

[3] = tested on: Ba/F3 P210-BCR-ABL1 RUNX1-/- (mouse)
How it was run: as §1

## Nc1nc2[nH]cc(CCc3ccc(C(=O)N[C@@H](CCC(=O)O)C(=O)O)cc3)c2c(=O)[nH]1 [Pemetrexed]
[1]
  drug sensitivity score: 27 ± 0.71
[2]
  drug sensitivity score: 26.6 ± 0.42
[3]
  drug sensitivity score: 27.8 ± 1.6

## CN(C)c1cc2c(cc1Sc1nc3c(N)nccc3n1CCNCC(C)(C)C)OCO2 [CUDC-305]
[1]
  drug sensitivity score: 16.9 ± 0.21
[2]
  drug sensitivity score: 17.1 ± 0.21
[3]
  drug sensitivity score: 18.3 ± 1.6

## Cc1ccc(C(=O)Nc2ccc(Oc3cc4cnn(C)c4cc3-c3cn[nH]c3)c(F)c2)c(=O)n1-c1ccc(F)cc1 [Merestinib]
[1]
  drug sensitivity score: 0
[2]
  drug sensitivity score: 0.05 ± 0.071
[3]
  drug sensitivity score: 0

## Cc1sc2c(c1C)C(c1ccc(Cl)cc1)=N[C@@H](CC(=O)Nc1ccc(O)cc1)c1nnc(C)n1-2 [Birabresib]
[1]
  drug sensitivity score: 24.6 ± 3
[2]
  drug sensitivity score: 15.2 ± 0.49
[3]
  drug sensitivity score: 24.1 ± 1.3

## Nc1nc2cc(-c3ccc4ncc(C(=O)N5CCOCC5)n4c3)ccc2o1 [Serabelisib]
[1]
  drug sensitivity score: 2.5 ± 3.5
[2]
  drug sensitivity score: 0
[3]
  drug sensitivity score: 1.5 ± 1.4

## N#Cc1ccc2[nH]c(O)c(-c3ccc(CN4CCOCC4)cn3)c2c1 [AZD-1080]
[1]
  drug sensitivity score: 0
[2]
  drug sensitivity score: 0
[3]
  drug sensitivity score: 0

## Nc1cc(F)ccc1NC(=O)/C=C/c1cnn(C/C=C/c2ccccc2)c1 [RGFP966]
[1]
  drug sensitivity score: 4.25 ± 0.78
[2]
  drug sensitivity score: 1.3 ± 0.28
[3]
  drug sensitivity score: 4.8 ± 1.1

## Nc1ccn([C@@H]2O[C@H](CO)[C@@H](O)[C@@H]2O)c(=O)n1 [Cytarabine]
[1]
  drug sensitivity score: 8.25 ± 4
[2]
  drug sensitivity score: 6.25 ± 0.071
[3]
  drug sensitivity score: 12.25 ± 0.071

## Cc1c(C(=O)Nc2ccc(N3C[C@@H](C)O[C@@H](C)C3)nc2)cccc1-c1ccc(OC(F)(F)F)cc1 [Sonidegib]
[1]
  drug sensitivity score: 1.3 ± 1.8
[2]
  drug sensitivity score: 0.15 ± 0.21
[3]
  drug sensitivity score: 1.3 ± 1.8

## Cn1cncc1[C@@](N)(c1ccc(Cl)cc1)c1ccc2c(c1)c(-c1cccc(Cl)c1)cc(=O)n2C [Tipifarnib]
[1]
  drug sensitivity score: 18.5 ± 2.3
[2]
  drug sensitivity score: 4.55 ± 0.071
[3]
  drug sensitivity score: 22.4 ± 2.8

## COc1cc(N2CCN(C)CC2)ccc1Nc1nccc(-c2cn(C)c3cnccc23)n1 [AZ191]
[1]
  drug sensitivity score: 7.45 ± 2.2
[2]
  drug sensitivity score: 2.5 ± 0.71
[3]
  drug sensitivity score: 7.2 ± 1.4

## Cc1cc(Nc2cc(N3CCN(C)CC3)nc(Sc3ccc(NC(=O)C4CC4)cc3)n2)n[nH]1 [Tozasertib]
[1]
  drug sensitivity score: 12.3 ± 0.85
[2]
  drug sensitivity score: 7.95 ± 0.071
[3]
  drug sensitivity score: 17.7 ± 0.14

## COc1cc(C)c(/C=C/C(C)=C/C=C/C(C)=C/C(=O)O)c(C)c1C [Acitretin]
[1]
  drug sensitivity score: 1.3 ± 1.8
[2]
  drug sensitivity score: 0
[3]
  drug sensitivity score: 0

## CC(C)n1nc(-c2ccc3oc(N)nc3c2)c2c(N)ncnc21 [Sapanisertib]
[1]
  drug sensitivity score: 16.6 ± 2.5
[2]
  drug sensitivity score: 11.3 ± 0.49
[3]
  drug sensitivity score: 16.9 ± 0.35

## CC(O)(CS(=O)(=O)c1ccc(F)cc1)C(=O)Nc1ccc(C#N)c(C(F)(F)F)c1 (stereo unspecified) [Bicalutamide]
[1]
  drug sensitivity score: 1.15 ± 1.6
[2]
  drug sensitivity score: 0
[3]
  drug sensitivity score: 0.25 ± 0.35

## Cn1c(=O)n(-c2ccc(C(C)(C)C#N)cc2)c2c3cc(-c4cnc5ccccc5c4)ccc3ncc21 [Dactolisib]
[1]
  drug sensitivity score: 18.3 ± 0.28
[2]
  drug sensitivity score: 14.4 ± 0.35
[3]
  drug sensitivity score: 16.9 ± 0.42

## CNC(=O)CN1CCC(Oc2cc3c(Nc4cccc(Cl)c4F)ncnc3cc2OC)CC1 [Sapitinib]
[1]
  drug sensitivity score: 0
[2]
  drug sensitivity score: 0
[3]
  drug sensitivity score: 0.35 ± 0.49

## Cc1cccc(-c2nn3c(c2-c2ccnc4ccc(C(N)=O)cc24)CCC3)n1 [Galunisertib]
[1]
  drug sensitivity score: 0
[2]
  drug sensitivity score: 0
[3]
  drug sensitivity score: 0

## CCN1CCN(Cc2ccc(Nc3ncc(F)c(-c4cc(F)c5nc(C)n(C(C)C)c5c4)n3)nc2)CC1 [Abemaciclib]
[1]
  drug sensitivity score: 8.3 ± 6.1
[2]
  drug sensitivity score: 3.05 ± 0.071
[3]
  drug sensitivity score: 10.2 ± 4.7

## Nc1nc(NC2CC2)cc(-c2cccc(Cl)c2Cl)n1 [TH588]
[1]
  drug sensitivity score: 4.45 ± 4.7
[2]
  drug sensitivity score: 3.6 ± 1.1
[3]
  drug sensitivity score: 5.45 ± 0.35

## COc1cccc(OCCCN)c1-c1cc(Nc2cnc(C#N)cn2)n[nH]1 [Prexasertib]
[1]
  drug sensitivity score: 31.4
[2]
  drug sensitivity score: 30.4 ± 1.3
[3]
  drug sensitivity score: 32.5 ± 2.5

## Cc1c(-c2c(-c3ccc(F)o3)sc3ncnc(O[C@H](Cc4ccccc4OCc4ccnn4CC(F)(F)F)C(=O)O)c23)ccc(OCCN2CCN(C)CC2)c1Cl
[1]
  drug sensitivity score: 3.45 ± 4.9
[2]
  drug sensitivity score: 0
[3]
  drug sensitivity score: 1.7 ± 2.4

## FC(F)(F)c1ccc(/C=C/c2nc(COc3ccc(CCCCn4ccnn4)cc3)co2)cc1 [Mubritinib]
[1]
  drug sensitivity score: 5.55 ± 0.49
[2]
  drug sensitivity score: 5.95 ± 0.21
[3]
  drug sensitivity score: 5.1 ± 0.28

## c1cc(CN2CCCNCCNCCCNCC2)ccc1CN1CCCNCCNCCCNCC1 [Plerixafor]
[1]
  drug sensitivity score: 0.05 ± 0.071
[2]
  drug sensitivity score: 0
[3]
  drug sensitivity score: 0.05 ± 0.071

## COc1ccc(COc2cc3oc(=O)c4cc(C(C)O)ccc4c3cc2OC)cc1 (stereo unspecified) [Palomid-529]
[1]
  drug sensitivity score: 1.7 ± 2.4
[2]
  drug sensitivity score: 0.4 ± 0.42
[3]
  drug sensitivity score: 0.05 ± 0.071

## Cc1cc(Nc2cc(CN3CCOCC3)c3nc(C)c(Cc4ccc(Cl)cc4F)n3n2)n[nH]1 [Gandotinib]
[1]
  drug sensitivity score: 4.9 ± 1.6
[2]
  drug sensitivity score: 2.35 ± 0.21
[3]
  drug sensitivity score: 4.8 ± 0.71

## Cc1cc2c(F)c(Oc3ncnn4cc(OC[C@@H](C)O)c(C)c34)ccc2[nH]1 [Brivanib]
[1]
  drug sensitivity score: 0
[2]
  drug sensitivity score: 0
[3]
  drug sensitivity score: 0

## C[C@@H]1CN(C(=O)c2ccc(NC(=O)c3cc(O[C@H](C)c4c(Cl)ccc(F)c4Cl)c(N)nn3)cc2)C[C@H](C)N1 [Ensartinib]
[1]
  drug sensitivity score: 0.2 ± 0.28
[2]
  drug sensitivity score: 0
[3]
  drug sensitivity score: 2.15 ± 0.92

## Cc1cc(Nc2cc(N3CCN(C)CC3)nc(/C=C/c3ccccc3)n2)n[nH]1 [ENMD-2076]
[1]
  drug sensitivity score: 8.45 ± 0.35
[2]
  drug sensitivity score: 5.5 ± 0.85
[3]
  drug sensitivity score: 9.4 ± 0.28

## CN(C)CCOc1ccc(/C(=C(/CCCl)c2ccccc2)c2ccccc2)cc1 [Toremifene]
[1]
  drug sensitivity score: 6.9 ± 2.7
[2]
  drug sensitivity score: 4.85 ± 0.35
[3]
  drug sensitivity score: 5.9 ± 1.7

## CO[C@H]1C[C@@H]2CC[C@@H](C)[C@@](O)(O2)C(=O)C(=O)N2CCCC[C@H]2C(=O)O[C@H]([C@H](C)C[C@@H]2CC[C@@H](O)[C@H](OC)C2)CC(=O)[C@H](C)/C=C(\C)[C@@H](O)[C@@H](OC)C(=O)[C@H](C)C[C@H](C)/C=C/C=C/C=C/1C [Sirolimus]
[1]
  drug sensitivity score: 8.4 ± 3.4
[2]
  drug sensitivity score: 0.5 ± 0.71
[3]
  drug sensitivity score: 7.6 ± 1.7

## O=C(NOCCO)c1ccc2cncn2c1Nc1ccc(I)cc1F [GDC-0623]
[1]
  drug sensitivity score: 3.7 ± 3.7
[2]
  drug sensitivity score: 0.55 ± 0.78
[3]
  drug sensitivity score: 10.8 ± 8.1

## Nc1ccccc1NC(=O)c1ccc(CNc2nccc(-c3cccnc3)n2)cc1 [Mocetinostat]
[1]
  drug sensitivity score: 17.4 ± 2.3
[2]
  drug sensitivity score: 17.1 ± 0.14
[3]
  drug sensitivity score: 17.5 ± 1.6

## CC[C@H](C)C(=O)O[C@H]1C[C@H](O)C=C2C=C[C@H](C)[C@H](CC[C@@H](O)C[C@@H](O)CC(=O)O)[C@H]21 [Pravastatin]
[1]
  drug sensitivity score: 0
[2]
  drug sensitivity score: 0.1 ± 0.14
[3]
  drug sensitivity score: 0.1 ± 0.14

## CN1CCC(CNc2ccc3ncc(-c4cccc(OC(F)(F)F)c4)n3n2)CC1 [SGI-1776]
[1]
  drug sensitivity score: 9.65 ± 2.2
[2]
  drug sensitivity score: 5.2 ± 0.14
[3]
  drug sensitivity score: 10.1 ± 0.71

## Cc1ccc(C(=O)N(CCCN)[C@@H](c2oc3cc(Cl)ccc3c(=O)c2Cc2ccccc2)C(C)C)cc1
[1]
  drug sensitivity score: 6.65 ± 4.7
[2]
  drug sensitivity score: 1.9 ± 0.14
[3]
  drug sensitivity score: 9.5 ± 6.1

## O=c1[nH]c(C2CCCN2)nc2c1oc1ccc(Cl)cc12 (stereo unspecified)
[1]
  drug sensitivity score: 2.3 ± 2.3
[2]
  drug sensitivity score: 0
[3]
  drug sensitivity score: 7.1 ± 1.1

## CC1(C)C(C(=O)Nc2ccc(S(=O)(=O)c3ccc(NC(=O)C4C(C)(C)C4(C)C)cc3)cc2)C1(C)C [BRD7116]
[1]
  drug sensitivity score: 0.05 ± 0.071
[2]
  drug sensitivity score: 0
[3]
  drug sensitivity score: 3.75 ± 2.6

## CC(C)Oc1ccc(C(=O)N[C@H](CNC(=O)CN(C)C)Cc2ccc(-c3cn4cccc([C@H](C)O)c4n3)cc2)cc1Cl
[1]
  drug sensitivity score: 7.5 ± 2.4
[2]
  drug sensitivity score: 2 ± 0.14
[3]
  drug sensitivity score: 10.2 ± 0.57

## COc1cc2c(NC3CCN(C(C)C)CC3)nc(N3CCC(F)(F)CC3)nc2cc1OCCCN1CCCC1 [UNC0642]
[1]
  drug sensitivity score: 6.5 ± 3
[2]
  drug sensitivity score: 0.15 ± 0.071
[3]
  drug sensitivity score: 5.35 ± 1.6

## Nc1ncnc2c1c(COc1cccc(Cl)c1)nn2C1CCOCC1
[1]
  drug sensitivity score: 1.05 ± 1.1
[2]
  drug sensitivity score: 0.05 ± 0.071
[3]
  drug sensitivity score: 1.6 ± 1.1

## Cc1cn(-c2cc(NC(=O)c3ccc(C)c(Nc4nccc(-c5cnccn5)n4)c3)cc(C(F)(F)F)c2)cn1 [Radotinib]
[1]
  drug sensitivity score: 30.9 ± 0.64
[2]
  drug sensitivity score: 27.9 ± 0.14
[3]
  drug sensitivity score: 28.9 ± 8.2

## COCCNCc1ccc(-c2cc3nccc(Oc4ccc(NC(=S)NC(=O)Cc5ccc(F)cc5)cc4F)c3s2)nc1 [Glesatinib]
[1]
  drug sensitivity score: 3.55 ± 1.1
[2]
  drug sensitivity score: 0
[3]
  drug sensitivity score: 7.4 ± 0.14

## CC#CC(=O)N1CCC[C@H]1c1nc(-c2ccc(C(=O)Nc3ccccn3)cc2)c2c(N)nccn12 [Acalabrutinib]
[1]
  drug sensitivity score: 0.05 ± 0.071
[2]
  drug sensitivity score: 0
[3]
  drug sensitivity score: 0

## C/C=C1\NC(=O)[C@H]2CSSCC/C=C/[C@H](CC(=O)N[C@H](C(C)C)C(=O)N2)OC(=O)[C@H](C(C)C)NC1=O [Romidepsin]
[1]
  drug sensitivity score: 27.6 ± 2.7
[2]
  drug sensitivity score: 29.4 ± 0.42
[3]
  drug sensitivity score: 29.85 ± 0.071

## O=C(Nc1cnn2ccc(N3CCC[C@@H]3c3cc(F)ccc3F)nc12)N1CC[C@H](O)C1 [Larotrectinib]
[1]
  drug sensitivity score: 0.05 ± 0.071
[2]
  drug sensitivity score: 0.7 ± 0.71
[3]
  drug sensitivity score: 0

## CN1CCN(c2cc(C(=O)Nc3ccc4c(c3)-c3c(c(C(N)=O)nn3-c3ccc(F)cc3)CC4)c(Cl)cn2)CC1 [PHA 408]
[1]
  drug sensitivity score: 8.95 ± 1.1
[2]
  drug sensitivity score: 7.4 ± 0.57
[3]
  drug sensitivity score: 10.2 ± 1.1
